The test system of the experiment is Colorado potato beetles (Leptinotarsa decemlineata Say). As to the kind of experiment: Field test of foliar sprays on potato plots: efficacy on Colorado potato beetles, number of larvae alive. The class given is in vivo. Particulars: for Number Larvae Alive 3 DAT: 3 days after treatment; for Number Larvae Alive 3 DAT / Number Larvae Alive 7 DAT / Number Larvae Alive 14 DAT / Number Larvae Alive 21 DAT / Number Larvae Alive 28 DAT: foliar spray; for Number Larvae Alive 7 DAT: 7 days after treatment; for Number Larvae Alive 14 DAT: 14 days after treatment; for Number Larvae Alive 21 DAT: 21 days after treatment; for Number Larvae Alive 28 DAT: 28 days after treatment; for Number Larvae Alive 0 Days: before treatment (0 days, baseline). The protocol: The compositions of the present invention were tested for Colorado Potato Beetle activity in the following manner:
Test compositions made up of Fury 10 EW, Mospilan 20 SP and Regent 200 SC were prepared that provided appropriate rates of application of combinations of zeta-cypermethrin, acetamiprid and fipronil, as well as zeta-cypermethrin, acetamiprid and fipronil alone.
The test was set up as a randomized complete block with 3 replicates. Each test plot was 24 meters square containing 3 rows of 50 plants. All test materials were applied as a foliar spray in 300 liters per hectare of water using a PILMET 212 sprayer at 0.35 Mpa. Observations were made before treatment (0 days), 3 days after treatment (DAT), 7 DAT, 14 DAT, 21 DAT and 28 DAT. For each observation 50 plants were inspected. For each observation the number of larvae reported was the total on the 10 most infested plants. Results reported are an average of three replicates.

The structures appear in SMILES notation.

For the compound `CC1(C)C(C=C(Cl)Cl)C1C(=O)OC(C#N)c1cccc(Oc2ccccc2)c1` [A, (R,S)-α-cyano-3-phenoxybenzyl-(1R,S)-cis-trans-3-(2,2-dichlorovinyl)-2,2-dimethylcyclopropanecarboxylate], where the note is “A 200 ml per hectare”, the “Number Larvae Alive 3 DAT” value amounted to 10, the “Number Larvae Alive 7 DAT” value is reported as 18, the “Number Larvae Alive 14 DAT” value was 15 and the “Number Larvae Alive 21 DAT” value came out at 43. Moreover, under “A 200 ml per hectare”, the “Number Larvae Alive 28 DAT” value was 20. Moreover, under “A 200 ml per hectare, total on 10 most infested plants, average of 3 replicates”, the “Number Larvae Alive 0 Days” value is reported as 303.

`C/C(=N\C#N)N(C)Cc1ccc(Cl)nc1` [B, (E)-N^1-[(6-chloro-3-pyridyl)methyl]-N^2-cyano-N^1-methylacetamidine]: under “B 100 g per hectare”, the “Number Larvae Alive 3 DAT” value worked out at 8, the “Number Larvae Alive 7 DAT” value was determined as 22, the “Number Larvae Alive 14 DAT” value amounted to 18 and the “Number Larvae Alive 21 DAT” value came out at 38. Further, where the note is “B 100 g per hectare”, the “Number Larvae Alive 28 DAT” value is 47 and the “Number Larvae Alive 0 Days” value is 362.

`N#Cc1nn(-c2c(Cl)cc(C(F)(F)F)cc2Cl)c(N)c1[S+]([O-])C(F)(F)F` (stereo not drawn) [C, 5-amino-1-(2,6-dichloro-α,α,α-trifluoro-p-tolyl)-4-trifluoromethylsulfinylpyrazole-3-carbonitrile]: where the note is “C 100 ml per hectare”, the “Number Larvae Alive 3 DAT” value amounted to 2, the “Number Larvae Alive 7 DAT” value was determined as 0, the “Number Larvae Alive 14 DAT” value is 0 and the “Number Larvae Alive 21 DAT” value is 22. Besides, under “C 100 ml per hectare”, the “Number Larvae Alive 28 DAT” value was found to be 17 and the “Number Larvae Alive 0 Days” value stood at 359.
